Data from patent US20100298376A1, “USE OF NOVEL NEUROPROTECTIVE 3-SUBSTITUTED INDOLONE COMPOSITIONS” (BOARD OF REGENTS, THE UNIVERSITY OF TEXAS SYSTEM, priority 2009, published 2010).
“And” between values parts separate entries of the source, which are not always exact repeats. Identical values can stand only once. Like-named read-outs stand apart in the source and are kept apart here.

Key:
[1] = system: cerebellar granule neurons; conditions: for % neuronal survival Mean ± SD: 24 hours, percent of HK control
Procedure: These compounds were analyzed for their neuroprotective activity in vitro. Granule neuron cultures were obtained from dissociated cerebella of 7-8 day old Wistar rats as known to one of ordinary skill in the art. Cells were plated in Basal Eagle's Medium with Earles salts (BME) supplemented with 10% fetal calf serum (FCS), 25 mM KCl, 2 mM glutamine (Invitrogen), and 100 μg/ml gentamycin on dishes (Nunc) coated with poly-L-lysine in 24-well dishes at a density 1×10^6 cells/well. Cytosine arabinofuranoside (10 μM) was added to the culture medium 18-22 hours after plating to prevent replication of non-neuronal cells that yields highly pure culture of granule neurons. The neuronal cultures were maintained for 7-8 days prior to treatments.
This experimental model of neuronal apoptosis has been used widely used to understand the molecular mechanisms underlying neurodegeneration and to identify biological and chemical agents with neuroprotective efficacy. For this, the cells were rinsed once and then maintained in low K^+ medium (serum-free BME medium, 5 mM KCl; referred to as LK), or in the case of control cultures, in high K^+ medium (serum-free BME medium, supplemented with 20 mM KCl; referred to as HK). Each compound was tested at three different concentrations of 1 μM, 5 μM, and 25 μM. The 25 μM concentration was included to evaluate neurotoxicity. For treatments, the chemical compounds (dissolved in dimethylsulfoxide) were added directly to LK medium at the time of the switch from HK at concentrations of 1 μM, 5 μM, or 25 μM. Viability was assessed 24 hours later. Each compound was tested in duplicate (at each of the concentrations) and the experiment repeated at least 3 times. Although all compounds were solubilized in dimethylsulfoxide (DMSO), the amount of DMSO in the cultures never exceeded 0.1% (v/v).
The viability status of neuronal cultures treated with HK, LK, or LK medium supplemented with various compounds was evaluated by phase contrast microscopy and quantified by staining cell nuclei with 4′,6′-diamidino2-phenylindole hydrochloride (DAPI). Briefly, the cells were fixed in 4% paraformaldehyde for 20 minutes at 4′C. After washing in phosphate buffered saline, DAPI (1 μg/ml in phosphate buffered saline) was added for 15 min at room-temperature and viewed under ultraviolet light (260 nm). Cells with condensed or fragmented nuclei were scored as dead. […] Statistical analysis was performed using an unpaired, two-tailed Student's t test, compared to mean neuronal survival of control cultures receiving LK treatment and the quantitative data are presented in Tables 1 and 2 for each compound.

[2] = Z/E isomer stability in DMSO-d6 by NMR; assay type: physicochemical; conditions: 6 hours from mixing
[3] = system: cerebellar granule neurons; assay: TUNEL and active caspase-3 immunoreactivity in neuronal cultures (FIG. 1); assay type: cell-based, Wistar rats; conditions: Compound 31 at 1 μm, compared with Compounds 7, 37 and 39, 24 hours
Text: FIG. 1 is a photograph illustrating the qualitative neuroprotective effects of Compound 7 (5 μm), Compound 31 (1 μm), Compound 37 (25 μm) and Compound 39 (25 lam) are illustrated presented in the figure. From left to right columns show phase-contrast micrographs of neuronal morphology, DAPI staining of nuclei showing fragmented nuclei, TUNEL staining also showing fragmented DNA, and active caspase-3 immunoreactivity highly indicative of apoptosis. DAPI and TUNEL panels are taken from the same fields.
The TUNEL assay of neuronal cultures was performed 24 hours after treatment of the cultures using DEADEND™ Fluorometric TUNEL System from Promega (Madison, Wis.) according to the manufacturer's instructions. For immunocytochemical analysis of active caspase 3, neuronal cultures cells were fixed and treated with 0.2% Triton for 5 minutes. After blocking with PBS containing 5% BSA and 5% goat serum in PBS for 30 minutes, the coverslips were incubated with the active capase-3 primary antibody overnight at 4° C. After three washes with phosphate-buffered saline (PBS), the cells were incubated with secondary antibodies for 45 minutes at 25° C. after which the cells were washed with PBS. To visualize nuclei, cells were stained with DAPI for 15 minutes at 25° C.

[4] = Solubility in the culture medium; conditions: 25 μM
[5] = LK medium, concentration not specified
[6] = at 1 μM and 5 μM (two lower concentrations)

SMILES | neuroprotective activity (in words) [1, 5] | % neuronal survival Mean ± SD ([1]; Table 1, 1 μM in LK medium) | % neuronal survival Mean ± SD ([1]; Table 1, 5 μM in LK medium) | % neuronal survival Mean ± SD ([1]; Table 1, 25 μM in LK medium) [%] | further results
O=C1Nc2ccccc2/C1=C\c1cc(Br)c(O)c(Br)c1 [Compound 1, (E)-3-(3′,5′-Dibromo-4′-hydroxybenzylidene)indolin-2-one] | moderately effective | 69.7 ± 2.19 % | 88.4 ± 11.74 % | 84.6 ± 7.57 | neurotoxicity (in words) [1]: not toxic; percent of Z configuration after 6 hours [2]: 50%
O=C1Nc2ccc(F)cc2/C1=C\c1cc(Br)cc(Br)c1 [Compound 31, (E)-3-(3′,5′-Dibromobenzylidene)-5-fluoroindolin-2-one] | lack of neuroprotective activity | 38.4 ± 6.24% | 46.1 ± 4.00% | 48.1 ± 14.65 | TUNEL and active caspase-3 immunoreactivity (in words) [3]: greater TUNEL and active caspase-3 immunoreactivity
O=C1Nc2ccc(Cl)cc2/C1=C\c1cc(Br)c(O)c(Br)c1 [Compound 7, (E)-3-(3′,5′-Dibromo-4-hydroxybenzylidene)-5-chlorondolin-2-one] |  | 84.3 ± 1.04 % | 91.9% and 91.9 ± 5.31 % | 81.8 ± 14.94 | neurotoxicity (in words) [1]: not toxic; neuroprotective activity (in words) ([1]; at 5 μM): highly effective; percent of Z configuration after 6 hours [2]: 70%
O=C1Nc2ccc(F)cc2/C1=C/c1cccs1 [Compound 44, (Z)-5-Fluoro-3-(thien-2′-ylmethylene)indolin-2-one] | low protection |  |  |  | % neuronal survival Mean ± SD ([1]; Table 2, 1 μM in LK medium): 53.6 ± 14.24%; % neuronal survival Mean ± SD ([1]; Table 2, 5 μM in LK medium): 60.1 ± 10.28%; % neuronal survival Mean ± SD ([1]; Table 2, 25 μM in LK medium): 68.7 ± 9.35%
O=C1Nc2ccc(Cl)cc2/C1=C/c1cc(Br)cc(Br)c1 [Compound 8, (Z)-3-(3′,5′-Dibromobenzylidene)-5-chloroindolin-2-one] | substantially less effective | 77.7 ± 17.51% | 68.5 ± 11.86% | 64.4 ± 9.65 | 
O=C1Nc2ccccc2/C1=C/c1cccs1 [Compound 41, (Z)-3-(Thien-2′-ylmethylene)indolin-2-one] |  |  |  |  | % neuronal survival Mean ± SD ([1]; Table 2, 1 μM in LK medium): 68.3 ± 13.16%; % neuronal survival Mean ± SD ([1]; Table 2, 5 μM in LK medium): 77.1 ± 13.16%; % neuronal survival Mean ± SD ([1]; Table 2, 25 μM in LK medium): 86.2 ± 4.03 %; neuroprotective activity (in words) ([1]; at 25 μM / high doses): moderately active
O=C1Nc2ccc(F)cc2/C1=C\c1cc(Br)c(O)c(Br)c1 [Compound 30, (E)-3-(3′,5′-Dibromo-4′-hydroxybenzylidene)-5-fluoro-indolin-2-one] | not effective | 49.3 ± 10.34% | 69.6 ± 8.96% | 18.1 ± 11.00 | neurotoxicity (in words) [1]: toxic
COc1cc(/C=C2\C(=O)Nc3ccc(Br)cc32)cc(OC)c1OC [Compound 18, (Z)-5-Bromo-3-(3′, 4′,5′-trimethoxybenzylidene)indolin-2-one] | not effective | 50.8 ± 7.67% | 59.9 ± 12.94% | 61.3 ± 1.20 | 
CC(=O)c1ccc2c(c1)/C(=C/c1cc(Br)c(O)c(Br)c1)C(=O)N2 [Compound 34, (Z)-5-Acetyl-3-(3′,5′-dibromo-4′-hydroxybenzylidene)indolin-2-one] | superior to Compound 1 | 96.8% and 96.8 ± 6.15 % | 110.3% and 110.3 ± 8.50 % | 2.2 ± 1.63 | neuroprotective activity (in words) [1, 6]: impressive neuroprotection
O=C1Nc2ccc([N+](=O)[O-])cc2/C1=C/c1cc(Br)c(O)c(Br)c1 [Compound 21, (Z)-3-(3′,5′-Dibromo-4-hydroxybenzylidene)-5-nitroindolin-2-one] | superior to Compound 1 | 79.9 ± 12.81% | 78.4 ± 31.66% | 71.3 ± 19.80 | percent of Z configuration after 6 hours [2]: 70%
O=C1Nc2ccccc2/C1=C\c1cc(Br)cc(Br)c1 [Compound 2, (E)-3-(3′,5′-Dibromobenzylidene)indolin-2-one] |  | 54.7 ± 5.32% | 45.4 ± 4.32% | 46.9 ± 12.30 | neuroprotective activity (in words) ([1]; at all three concentrations): not protective
COc1cc(/C=C2\C(=O)Nc3ccc([N+](=O)[O-])cc32)cc(OC)c1OC [Compound 23, (Z)-3-(3′, 4′,5′-Trimethoxybenzylidene)-5-nitroindolin-2-one] |  | 76.6 ± 15.98% | 61.9 ± 5.87% | 69.0 ± 11.26 | 
O=C1Nc2ccc(Br)cc2/C1=C/c1cc(Br)cc(Br)c1 [Compound 17, (Z)-5-Bromo-3-(3′,5′-dibromobenzylidene)indolin-2-one] |  | 54.7 ± 8.56% | 45.4 ± 3.05% | 46.9 ± 7.74 | 
O=C1Nc2ccc([N+](=O)[O-])cc2/C1=C/c1cccs1 [Compound 42, (Z)-5-Nitro-3-(thien-2′-ylmethylene)indolin-2-one] |  |  |  |  | % neuronal survival Mean ± SD ([1]; Table 2, 1 μM in LK medium): 75.1 ± 9.11 %; % neuronal survival Mean ± SD ([1]; Table 2, 5 μM in LK medium): 67.6 ± 2.29%; % neuronal survival Mean ± SD ([1]; Table 2, 25 μM in LK medium): 66.9 ± 10.30%
O=C1Nc2ccc(Br)cc2/C1=C\c1cc(Br)c(O)c(Br)c1 [Compound 16, (E)-5-Bromo-3-(3′,5′-dibromo-4-hydroxybenzylidene)indolin-2-one] | superior to Compound 1 | 88.4 ± 0.71 % | 98.7% and 98.7 ± 3.85 % |  | neurotoxicity (in words) [1]: not toxic; neuroprotective activity (in words) [1, 6]: highly protective; neuroprotective activity (in words) ([1]; at 5 μM): highly effective; percent of Z configuration after 6 hours [2]: 80%; solubility in the culture medium (in words) [4]: not completely soluble
O=C1Nc2ccc(F)cc2/C1=C/c1ccc[nH]1 [Compound 40] | highest neuroprotective activity |  |  |  | % neuronal survival Mean ± SD ([1]; Table 2, 1 μM in LK medium): 58.4 ± 3.98%; % neuronal survival Mean ± SD ([1]; Table 2, 5 μM in LK medium): 65.7 ± 0.07%; % neuronal survival Mean ± SD ([1]; Table 2, 25 μM in LK medium): 96.6 ± 1.91 %; neuroprotective activity (in words) ([1]; at 25 μM / high doses): the most effective one
Cc1ccc(/C=C2\C(=O)Nc3ccc([N+](=O)[O-])cc32)cc1 [Compound 28, (Z)-3-(4′-Methylbenzylidene)-5-nitroindolin-2-one] |  | 54.6 ± 7.48% | 60.0 ± 1.87% | 54.3 ± 0.49 | 
